Reference: patent publication US20190183811A1, “COMPOSITION CONTAINING SQUALENE FOR IMPROVING MUSCLE FUNCTION AND PREVENTING MUSCLE DAMAGE” (AAT COSTECH CO., LTD., priority 2016, published 2019)

What was measured:
[1] = system: p-mTOR in C2C12 muscle cells; experiment: Western blot of phosphorylated mTOR (p-mTOR) in C2C12 muscle cells treated with squalene; format: cell-based; details: FIG. 1
Protocol: In a case where mTOR protein is activated by phosphorylation, expression levels of major proteins in muscle cells which are expressed upon differentiation and are associated with muscle protein synthesis and muscle mass increase in a PI3K/Akt signaling pathway were checked. The obtained cells were lysed with an NP-40 buffer solution (ELPISBIOTECH. INC, Daejeon, Korea) containing a protease inhibitor cocktail (Sigma-Aldrich), and centrifuged at 13,000 rpm for 10 minutes to obtain a cell lysate which is a supernatant. A protein concentration in the supernatant was quantitated by Bradford. Then, a predetermined concentration of the proteins was heated for 5 minutes and separated by SDS-PAGE electrophoresis. The separated proteins were transferred to a nitrocellulose membrane. Then, a p-mTOR primary antibody (Cell Signaling Technology, Inc., Beverly, Mass., USA) was diluted with 2.5% bovine serum albumin (BSA; BioWORLD, Dublin, Ohio, USA) at a ratio of 1:1,000, and the resultant was allowed to react with the proteins, which had been transferred to the nitrocellulose membrane, at room temperature for 20 hours. […] Protein bands detected through antibody binding were developed using the ECL Western Blot Detection Reagent (Amersham, Tokyo, Japan), and the developed protein bands were identified using a G:BOX EF imaging system (Syngene, Cambridge, UK).

[2] = system: p-p70S6K in C2C12 muscle cells; experiment: Western blot of p-p70S6K protein in C2C12 muscle cells treated with squalene; format: cell-based; details: FIG. 2
Protocol: Thus, in order to identify this fact in a more specific manner, a phosphorylation-induced activity level of p70S6K protein, which is known to be involved in an mRNA translation process in muscle cells, was checked, instead of an expression level of p-mTOR. Specifically, C2C12 muscle cells were treated with squalene and cultured while inducing differentiation, by performing the same method as in the above <Example 1>. The resulting cells were obtained and subjected to western blotting. A p-p70S6K antibody (Santa Cruz Biotechnology, Inc., Santa Cruz, Calif., USA) was used as a primary antibody for western blotting.

[3] = system: atrogin-1 mRNA in C2C12 muscle cells; experiment: RT-PCR of atrogin-1 mRNA expression in C2C12 muscle cells treated with squalene; format: cell-based; details: cultured 12 hours, FIG. 3
Protocol: (§1) Thus, in order to identify whether the produced muscle proteins can also be protected against degradation through degradation-inhibitory activity of squalene, mRNA transcriptional expression levels of atrogin-1 and MuRF1 which are muscle-degrading proteins were checked.
(§2) Specifically, C2C12 muscle cells were treated with squalene and cultured for 12 hours while inducing differentiation, by performing the same method as in the above <Example 1>. The resulting cells were obtained. Total RNA was isolated from the obtained cells using a TRIzol reagent (Invitrogen, Carlsbad, Calif., USA). The isolated total RNA was quantitated using NanoDrop 1000 (Thermo Fisher Scientific Inc., Waltham, Mass., USA). The quantified 16 μL of RNA was synthesized into cDNA using Reverse Transcriptase Premix (ELPISBIOTECH. INC) and a PCR machine (Gene Amp PCR System 2700; Applied Biosystems, Foster City, Calif., USA) under a condition at 42° C. for 55 minutes and 70° C. for 15 minutes. 3 μL of cDNA out of the synthesized cDNA, specific primers (BIONEER CORPORATION, Daejeon, Korea) as shown in the following [Table 1], and a PCR premix (ELPISBIOTECH. INC) were mixed, and PCR was performed by repeating 30 cycles of 95° C. for 30 seconds, 60° C. for 1 minute, and 72° C. for 1 minute. […]

[4] = system: MuRF1 mRNA in C2C12 muscle cells; experiment: RT-PCR of MuRF1 mRNA expression in C2C12 muscle cells treated with squalene; format: cell-based; details: cultured 12 hours, FIG. 3
Protocol: as §1, §2

[5] = system: immobilized rats (muscle atrophy and muscle damage); experiment: Muscular strength (muscular strength meter) after hindlimb immobilization; format: in vivo, rats (C57BL/6J); details: squalene 100 and 200 mg/kg/day oral for one week after one week immobilization; vs immobilized group, **P<0.01; FIG. 4
Protocol: (§3) Seven-week-old male rats (C57BL/6J; DBL Co., Ltd.) were purchased as experimental animals, and experiments were conducted. All animals were kept at the Yonsei Laboratory Animal Research Center (YLARC, Seoul, Korea), and an environment under which the animals were kept was maintained at a temperature of 23±2° C. and a relative humidity of 55±10%. Before starting experiments, a total of 28 rats were randomly assigned to 7 rats per group, and the groups were divided into a normal group, an immobilized group, 100 mg/kg/day of squalene-administered group (squalene 100-administered group), and 200 mg/kg/day of squalene-administered group (squalene 200-administered group). After one week of adaptation, anesthesia was induced by intraperitoneal injection of 325 mg/kg of tribromoethanol (Sigma-Aldrich). […] One week later, the staples fixed on the gastrocnemius muscle and the sole were removed and squalene was orally administered at a concentration of 100 mg/kg and 200 mg/kg on a daily basis for one week. The normal group and the immobilized group were orally administered saline instead of squalene. After the oral administration period was completed in the above <Example 4-1>, muscular strength of the rats was measured using a muscular strength meter (Columbus Instruments International, Columbus, Ohio, USA). All forelimbs and hindlimbs of the rat were grasped on a grid. […]

[6] = system: immobilized rats (muscle atrophy and muscle damage); experiment: Weight of tibialis anterior muscle of right hindlimb after immobilization; format: in vivo, rats (C57BL/6J); details: muscle not damaged by stapler, squalene 100 and 200 mg/kg/day oral for one week, vs immobilized group, *P<0.05, FIG. 5
Protocol: as §3, with “measurement of muscular strength” for “oral administration period was completed”, “4-2> was completed, the experimental animals were anesthetized by intraperitoneal injection” for “4-1>, muscular strength”, “325 mg/kg of tribromoethanol (Sigma-Aldrich),” for “the rats was measured using a muscular strength meter (Columbus Instruments International, Columbus, Ohio, USA). All forelimbs”, “then sacrificed by cardiac puncture.” for “hindlimbs of the rat were grasped on a grid.”

[7] = system: immobilized rats (muscle atrophy and muscle damage); experiment: Myofiber cross-sectional area in tibialis anterior muscle (H&E staining, Image J); format: in vivo, rats (C57BL/6J); details: squalene 100 and 200 mg/kg/day oral for one week; vs immobilized group, **P<0.01; FIG. 6
Protocol: Seven-week-old male rats (C57BL/6J; DBL Co., Ltd.) were purchased as experimental animals, and experiments were conducted. All animals were kept at the Yonsei Laboratory Animal Research Center (YLARC, Seoul, Korea), and an environment under which the animals were kept was maintained at a temperature of 23±2° C. and a relative humidity of 55±10%. Before starting experiments, a total of 28 rats were randomly assigned to 7 rats per group, and the groups were divided into a normal group, an immobilized group, 100 mg/kg/day of squalene-administered group (squalene 100-administered group), and 200 mg/kg/day of squalene-administered group (squalene 200-administered group). After one week of adaptation, anesthesia was induced by intraperitoneal injection of 325 mg/kg of tribromoethanol (Sigma-Aldrich). […] One week later, the staples fixed on the gastrocnemius muscle and the sole were removed and squalene was orally administered at a concentration of 100 mg/kg and 200 mg/kg on a daily basis for one week. The normal group and the immobilized group were orally administered saline instead of squalene. […] In addition, myofibers were photographed and a cross-sectional area thereof was measured with an Image J program (National Institutes of Health, Bethesda, […], USA).

[8] = system: immobilized rats (muscle atrophy and muscle damage); experiment: Weight of muscle physically directly damaged by the stapler (regeneration of damaged muscles); format: in vivo, rats (C57BL/6J); details: right hindlimb, squalene 100 and 200 mg/kg/day oral for one week, vs immobilized group, **P<0.01, FIG. 7
Protocol: Seven-week-old male rats (C57BL/6J; DBL Co., Ltd.) were purchased as experimental animals, and experiments were conducted. All animals were kept at the Yonsei Laboratory Animal Research Center (YLARC, Seoul, Korea), and an environment under which the animals were kept was maintained at a temperature of 23±2° C. and a relative humidity of 55±10%. Before starting experiments, a total of 28 rats were randomly assigned to 7 rats per group, and the groups were divided into a normal group, an immobilized group, 100 mg/kg/day of squalene-administered group (squalene 100-administered group), and 200 mg/kg/day of squalene-administered group (squalene 200-administered group). After one week of adaptation, anesthesia was induced by intraperitoneal injection of 325 mg/kg of tribromoethanol (Sigma-Aldrich). […] One week later, the staples fixed on the gastrocnemius muscle and the sole were removed and squalene was orally administered at a concentration of 100 mg/kg and 200 mg/kg on a daily basis for one week. The normal group and the immobilized group were orally administered saline instead of squalene. In the rat from which the tibialis anterior muscle of the right hindlimb was extracted in the above <Example 4-3>, a […] of the right hind limb, which was physically directly damaged by the stapler, was extracted and weighed.

With `CC(C)=CCC/C(C)=C/CC/C(C)=C/CC/C=C(\C)CC/C=C(\C)CCC=C(C)C` [squalene, (6E,10E,14E,18E)-2,6,10,15,19,23-hexamethyltetracosa-2,6,10,14,18,22-hexaene] the “expression level of phosphorylated mTOR (p-mTOR)” value [1] was “increased”, the “expression level of the p-p70S6K protein” value [2] was “increased” and the “mRNA expression level of atrogin-1” value [3] was “decreased”. For the same compound, the “mRNA expression level of MuRF1” value [4] was “decreased”, the muscular strength [5] was “restored in a concentration-dependent manner” and the “weight of the tibialis anterior muscle” value [6] was “increased in a concentration-dependent manner”. The “myofiber cross-sectional area in the tibialis anterior muscle” value [7] was “increased in a concentration-dependent manner” and the “weight of the tibialis anterior muscle physically directly damaged by the stapler” value [8] was “increased in a concentration-dependent manner”.
